Assay results reported in patent US12115193B2, “Methods of using RARγ agonists for cancer treatment” (Io Therapeutics, Inc., priority 2021, dated 2024).

How the values were obtained:
[1] = molecular target: T1, RARγ (Homo sapiens, UniProt P13631); assay: RARγ transactivation assay (luciferase reporter); type: cell-based; conditions: at all tested concentrations (0.5 to 625 nM); receptor not given
T1 construct: expression plasmids encoding the full-length receptors RARα and RARγ; expressed in transfected cells
T1 sequence (P13631 1-454): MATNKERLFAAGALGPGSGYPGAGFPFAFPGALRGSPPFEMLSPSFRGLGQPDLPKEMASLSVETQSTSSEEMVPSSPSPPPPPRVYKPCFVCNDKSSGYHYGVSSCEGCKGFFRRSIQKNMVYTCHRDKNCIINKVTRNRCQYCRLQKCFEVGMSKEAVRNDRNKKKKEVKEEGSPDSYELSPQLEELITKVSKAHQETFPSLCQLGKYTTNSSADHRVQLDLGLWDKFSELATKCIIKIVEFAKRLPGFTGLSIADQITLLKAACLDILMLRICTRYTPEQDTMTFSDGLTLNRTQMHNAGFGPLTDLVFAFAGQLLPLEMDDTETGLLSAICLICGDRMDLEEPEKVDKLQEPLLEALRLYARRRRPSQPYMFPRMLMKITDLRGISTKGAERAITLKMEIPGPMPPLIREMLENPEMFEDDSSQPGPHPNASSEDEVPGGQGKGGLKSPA
Experimental: Transactivation assays were conducted to test the specificity of binding activity of GA1E and GA2E for RARα and RARγ. Retinoic acid receptor transactivation activity and binding efficiencies were determined essentially as described in U.S. Pat. Nos. 5,298,429 and 5,071,773, incorporated by reference herein for all they teach regarding transactivation assays. Transactivation assays employed expression plasmids encoding the full-length receptors RARα and RARγ. Reporter plasmids containing the herpes virus thymidine kinase promoter and the appropriate retinoic acid receptor response element (RAREs) were positioned upstream of an open coding region encoding firefly luciferase.
The ability of GA1E and GA2E to activate RARα and RARγ in a transactivation assay was tested over a concentration range of 0.5 to 625 nM (GA2E) or 0.05 to 3320 nM (GA1E). GA1E induced less than 10% transactivation for RARα across the whole concentration range, but over 50% transactivation for RARγ at concentrations ≥25 nM and over 70% at concentrations 125 nM (FIG. 3A). GA2E induced more than 85% transactivation at all tested concentrations and less than 10% transactivation of RARα at concentrations of ≤25 nM (FIG. 3B).

[2] = tested on: TIL in EMT6 tumors; assay: Flow cytometry of excised EMT6 tumors (Example 4); type: in vivo, mouse
Description: At the end of the study of Example 3, the tumors were excised, the cells disaggregated and dispersed without use of proteases, stained with various agents, and subjected to flow cytometry. FIG. 5A-B present the results of the flow cytometry both as a percentage of cells and as the number of cells per tumor. […] Of these live cells, a substantial proportion were leukocytes (FIG. 5A, “CD45” panels). […] The majority of the T cells were CD4+(FIG. 5A, “CD4” panels), expected to be predominantly helper cells. Of the CD4^+ cells, only small proportions were T memory cells (expected to be predominantly TH1 memory cells) based on intracellular staining for IFNγ (FIG. 5B, “TH IFGγ” panels), TH17 cells based in intracellular staining for IL-17 (FIG. 5B, “TH IL17” panels), or Treg cell based on staining for CD25 and FoxP3 (FIG. 5B, “Treg” panels). About 25-30% of the T cells were CD8^+ (FIG. 5B, “CD8 T” panels), expected to be predominantly cytotoxic cells.

[3] = tested on: JIMT-1 cells; assay: NSG-B2M mice implanted with JIMT-1 Her2+ breast cancer cells and human PBMC; type: in vivo
Experimental: The NSG-B2M mouse model is a severely immunocompromised animal, combining the lesions non-obese diabetic (NOD), severe combined immunodeficiency (SCID), IL-2 receptor γ null, and β2-microglobulin null. Human tumor cells readily engraft in this model and cells from the human immune system can also be engrafted in order to study various modes of cancer immunotherapy. Thus, one can model a human immune response to a human tumor in this system. Female NSG-B2M mice were injected in the mammary fat pad with 5×10^6 JIMT-1 cells (human breast carcinoma cell line) suspended in 0.1 mL of phosphate-buffered saline (PBS) with an equal volume of Matrigel®. Once tumors reached a volume of 100-200 mm^3, the mice were implanted with 1×10^7 human PBMC by subcutaneous injection into the right flank (pre-randomization). PBMC were obtained from two donors and distributed evenly between groups. When tumors reached an average tumor volume of 200-250 mm^3 (about 3 days post-PBMC injection) animals were matched by tumor volume into treatment and control groups, and dosing initiated. This first day of dosing was defined as Day 0. The mice were administered a daily oral dose of 10 mL/kg of 10% dimethyl sulfoxide (DMSO) in PBS as vehicle control or 10 mg/kg of GA2E dissolved in 10% DMSO in PBS as the treatment.
Tumor volume was measured twice weekly and on the day a study endpoint was reached. The mice were also weighed twice weekly and on the day a study endpoint was reached.
Study endpoint was defined as when the mean tumor volume of the control group (uncensored) reaches 1500 mm^3. If this occurs before Day 28, treatment groups and individual mice were permitted to be dosed and measured up to Day 28.

[4] = tested on: EMT6 cells; assay: EMT6 in vitro culture viability, Cell Titer Glo Assay; type: cell-based, mouse; conditions: 5 days
Experimental: EMT6 cells were cultured in vitro for 5 days the presence of a multiple concentrations of the RARγ agonists GA1E, GA2E, and GA3Ep and viability assessed by the Cell Titer Glo Assay® (Promega).

[5] = tested on: LLC cells; assay: LLC syngeneic model in C57BL/6 mice (Example 10); type: in vivo
Experimental: The LLC model is based on an epidermoid carcinoma of the lung that spontaneously arose in a C57BL/6 mouse some 70 years ago, Syngeneic models have been useful in predicting clinical benefit. C57BL/6 mice, 6-8 weeks old, were injected subcutaneously in the left flank with 0.1 mL containing 3×10^5 LLC cells. When tumors reached an average tumor volume of 50-150 mm^3, the mice were matched by tumor size and sorted into control and treatment groups, and dosing initiated (Day 0). Three groups of 10 mice each were established: vehicle control, 10 mg/kg GA2E, and 25 mg/kg GA2E. The mice received one oral dose per day for 13 days. Tumor volumes and weight were measured on days 0, 2, 4, 6, 9, 11, and 13. This study was ended on Day 13, as the average tumor volume was >1500 mm^3, and the tumors analyzed by flow cytometry. Two animals in the 10 mg/kg group and one animal in the 25 mg/kg group were terminated early due to ulceration of the tumor.

[6] = 10 mg/kg oral daily, end of study
[7] = 10 mg/kg oral daily for 13 days
[8] = 25 mg/kg oral daily for 13 days

CC1(C)CCC(C)(C)c2cc(C(/C=C/c3ccc(C(=O)O)cc3F)=N/O)ccc21 [GA2E, 3-fluoro-4-((1E,3E)-3-(hydroxyimino)-3-(5,5,8,8-tetramethyl-5,6,7,8-tetrahydronaphthalen-2-yl)prop-1-en-1-yl)benzoic acid]
transactivation [1]: more than 85%
T cells (anti-CD3) as mean percentage of the leukocytes in the tumor [2, 6]: about 30%
number of TIL [2, 6]: increased
proportion of CD8+ T cells that were memory cells (intracellular IFNγ) ([2]; vs vehicle control, did not achieve statistical significance): numerically increased
tumor volume after drug holiday started on Day 13 ([3]; 10 mg/kg daily oral until Day 12, then drug holiday): tumor shrinkage subsequent to Day 19
tumor growth while the mice were receiving drug ([3]; 10 mg/kg daily oral, Day 0 to Day 12): No impact on tumor growth
weight loss ([3]; 10 mg/kg daily oral, by Day 12): > 10%
effect on viability as concentrations exceeded 10 μM [4]: rapidly became toxic
effect on viability at concentrations below 1 μM [4]: no effect
IC50 ([4]; Mus musculus, 120 h): 19 µM
tolerability [5, 7]: well tolerated
tumor growth [5, 7]: inhibited tumor growth
weight loss over the course of the study [5, 7]: minimal weight loss
tolerability [5, 8]: less well tolerated
tumor growth [5, 8]: inhibited tumor growth
weight loss ([5]; 25 mg/kg oral daily, by about Day 10): exceeding 10%
